Nine compounds from patent publication US7087623B2, “Thiazole and other heterocyclic ligands for mammalian dopamine, muscarinic and serotonin receptors and transporters, and methods of use thereof” (Sepracor Inc., priority 2001, dated 2006) can be followed below.

The structures appear in SMILES notation. Like-named read-outs stand apart in the source and are kept apart here. Some results are limits rather than exact numbers.

In series [1] the target is T1, human serotonin 5-HT6 receptor (Homo sapiens, UniProt P50406).
T1 construct: expressed in transfected cells; host or cells: HeLa/E6-7
T1 sequence (P50406 whole entry): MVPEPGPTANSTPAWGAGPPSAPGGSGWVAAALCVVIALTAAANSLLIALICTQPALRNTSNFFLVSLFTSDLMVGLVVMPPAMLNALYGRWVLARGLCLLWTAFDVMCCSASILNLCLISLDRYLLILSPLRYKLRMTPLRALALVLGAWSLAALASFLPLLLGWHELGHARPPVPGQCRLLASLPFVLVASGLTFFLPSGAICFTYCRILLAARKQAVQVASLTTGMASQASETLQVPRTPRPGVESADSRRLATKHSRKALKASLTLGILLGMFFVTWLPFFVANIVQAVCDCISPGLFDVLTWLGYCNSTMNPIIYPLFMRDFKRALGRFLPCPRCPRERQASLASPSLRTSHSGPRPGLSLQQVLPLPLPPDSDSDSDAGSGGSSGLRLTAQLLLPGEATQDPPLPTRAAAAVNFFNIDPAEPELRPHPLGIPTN
Briefly: Radioligand binding assay, human 5-HT6 receptors ([3H]LSD). A digest of the protocol:
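Membranes from HeLa/E6–7 cells stably expressing human 5-HT6, in modified Tris-HCl pH 7.4, incubated (30 μg) with 1.5 nM [3H]LSD for 120 min at 37° C. Non-specific binding defined with 5 μM 5-HT; bound ligand measured by filtration and counting.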

Series [2] concerns the target T2, human serotonin 5-HT2B receptor (Homo sapiens, UniProt P41595).
T2 construct: expressed in transfected cells; host or cells: CHO-K1
Nature of the series: Radioligand binding assay, human 5-HT2B receptors ([3H]LSD). A digest of the protocol:
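Membranes from CHO-K1 cells stably expressing human 5-HT2B, in modified Tris-HCl pH 7.4, bound with [3H]LSD. Non-specific binding defined with 10 μM serotonin; specific binding counted after filtration and three washes.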

For series [3], the system named is Wistar rats. Nature of the series: Acute toxicity assessment (maximum tolerated dose) in Wistar rats, i.v. Type of series: in vivo. The note with it: observed 72 hours. On the procedure: An in vivo evaluation was carried out to determine the maximum tolerated dose of certain compounds in Wistar rats (male and female weighing ˜[…]). The compounds were administered i.v. and the animals were then observed for 72 hours. Compounds 37, 93, and 112 were solubilized in 5% dextrose (w/v)/polyethylene glycol 400 (4:1 v/v).

The mark [4] stands for this setting: human, Example 100 table, read-out: IC50 (nM) 5-HT6.
Setting [5] is: human, Example 100 table, read-out: IC50 (nM) 5-HT2B.
The mark [6] stands for this setting: human 5-HT6, Example 16 table, read-out: IC50 (nM) 5-HT6.
The mark [7] stands for this setting: human 5-HT2b, Example 16 table, read-out: IC50 (nM) 5-HT2b.

T2 sequence (P41595 whole entry): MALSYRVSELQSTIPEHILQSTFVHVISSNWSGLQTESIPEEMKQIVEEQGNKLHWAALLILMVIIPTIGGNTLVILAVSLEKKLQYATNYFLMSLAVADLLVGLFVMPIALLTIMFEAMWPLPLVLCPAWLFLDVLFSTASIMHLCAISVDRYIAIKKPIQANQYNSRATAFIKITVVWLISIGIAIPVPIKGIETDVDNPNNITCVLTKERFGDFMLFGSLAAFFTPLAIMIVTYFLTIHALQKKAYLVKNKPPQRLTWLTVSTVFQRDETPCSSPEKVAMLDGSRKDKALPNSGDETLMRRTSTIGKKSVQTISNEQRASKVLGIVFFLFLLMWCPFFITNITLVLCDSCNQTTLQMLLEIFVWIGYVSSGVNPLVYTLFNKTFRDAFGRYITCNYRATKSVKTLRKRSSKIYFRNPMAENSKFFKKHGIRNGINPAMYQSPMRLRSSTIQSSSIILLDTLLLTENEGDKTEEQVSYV

For orientation: IC50 means the midpoint of a concentration-inhibition curve. Regarding `CN1CCCC1CCNc1nc(C2(c3ccccc3F)CCCCC2)cs1` (racemic) [Compound 128, {4-[1-(2-fluorophenyl)-cyclohexyl]-thiazol-2-yl}-[2-(1-methyl-pyrrolidin-2-yl)-ethyl]-amine], the IC50 is under 100 nM in series [1] (setting [4]) and under 1000 nM in series [2] (setting [5]).

Take `CN1CCCC1CCNc1nc(C2(c3ccccc3F)CCCCC2)cs1` (single isomer, unassigned) [Compound 130, {4-[1-(2-fluorophenyl)-cyclohexyl]-thiazol-2-yl}-[2-(1-methyl-pyrrolidin-2-yl)-ethyl]-amine]: the IC50 in series [1] (setting [4]) and in series [2] (setting [5]) was under 100 nM throughout.

For `CN1CCN(c2nc(C3(c4csc5ccc(Cl)cc45)CCOCC3)cs2)CC1` [Compound 36], the IC50 in series [1] (setting [6]) was under 100 nM; in series [2] (setting [7]), under 1000 nM.

Consider `Clc1ccc(C2(c3csc(N4CCNCC4)n3)CCOCC2)cc1` [Compound 37], for which the “Tolerability and mortality after 72 h” value in series [3] (60 mg/kg i.v.) was “well tolerated by the animals and did not cause any mortality”. Moreover, the IC50 in series [1] (setting [6]) is under 100 nM; in series [2] (setting [7]) it was over 1000 nM.

For the compound `CN1CCN(c2nc(C3(c4ccccc4)CCOCC3)cs2)CC1` [Compound 59], the IC50 is under 100 nM in series [1] (IC50 (nM) 5-HT6, human 5-HT6, Example 16 table) and over 1000 nM in series [2].

`CN1CCN(c2nc(C3(c4cccc(Cl)c4)CCOCC3)cs2)CC1` [Compound 63]: the values for the IC50 in series [1] (setting [6]) and in series [2] (setting [7]) were under 100 nM and under 1000 nM, respectively.

Take `CN1CCN(c2nc(C3(c4ccccc4F)CCCCC3)cs2)CC1` [Compound 83]: the IC50 in series [1] (setting [6]) and in series [2] (setting [7]) was under 100 nM each time.

As to `CN1CCN(c2nc(C3(c4ccccc4F)CCCC3)cs2)CC1` [Compound 93], the “Tolerability and mortality after 72 h” value in series [3] (60 mg/kg i.v.) was “well tolerated by the animals and did not cause any mortality”. Also, the IC50 in series [1] (setting [6]) is under 100 nM; in series [2] (setting [7]) it was under 1000 nM.

For `CN1CCN(c2nc(C3(c4ccccc4F)CCOCC3)cs2)CC1` [Compound 112], in series [3] (30 mg/kg i.v.), the “Tolerability and mortality after 72 h” value is “well tolerated by the animals and did not cause any mortality”. Further, in series [1] (setting [4]), the half-inhibitory concentration (IC50) was under 100 nM.
